Measurements: patent publication US5298652A, “N-substituted glycines, inhibitors of phospholipase A2” (Hoffmann-La Roche Inc., priority 1992, dated 1994)
Values belong to the compound of their own block, whether it stands above or below them.

Columns and labels:
[1] = test system: TPA-induced mouse ear edema; assay: TPA induced mouse ear edema test; assay type: in vivo, male CD-1 mice; conditions: for % Inhib of TPA Mouse Ear Edema (1 mg) / % Inhib of Myeloperoxidase Mouse Ear Edema (1 mg): 1 mg topical
Method: TPA Induced Mouse Ear Edema Test
The TPA-induced mouse ear edema test, a model of irritant-induced contact dermatitis is described in the following reference: J. M. Young, B. M. Wagner and D. A. Spires, J. Invest. Dermatology 80, 48-52 (1983).
For this test, 10 μl of 12-O-tetradecanoylphorbol-13-acetate (TPA), dissolved in a vehicle of pyridine: water: diethylether (20:5:75), was applied to the outside of the right ear of 3-4 week old male CD-1 mice (8 animals per group). The test compounds were dissolved in the same vehicle and 10 μl was applied to the inside of the same ear 30 minutes prior to the application of TPA. Ear punches (6 mm) were removed at 6 hours after TPA application, weighed and assayed for myeloperoxidase (MPO) activity as described in the following reference: P. P. Bradley, D. A. Priebat, R. D. Christensen and G. Rothstein, J. Invest. Dermatology 78, 206-209 (1982). The wet weight of the ear biopsy punches is a measure of the ear edema and the level of MPO activity in the ear punches is an indicator of neutrophil infiltration. The data are expressed as percent inhibition in drug-treatedanimals relative to the control group. Table II sets forth the percentage inhibition of edema by representative compounds of the invention in this test. Table III sets forth the percentage inhibition of myeloperoxidase by representative compounds of the invention in this test.

[2] = target: T1, HSF-PLA2 (extracellular PLA2 obtained from human synovial fluid) (Homo sapiens, UniProt P14555); assay: Assay for inhibition of HSF-PLA2 in vitro; assay type: biochemical; conditions: read-out: % Inhib of HSF-PLA2; for inhibition at 10 µM: 10 μM test compound; for inhibition at 5 µM: 5 μM test compound
T1 construct: extracellular enzyme obtained from human synovial fluid; from tissue; host or cells: human synovial fluid (pooled)
T1 sequence (P14555 21-144): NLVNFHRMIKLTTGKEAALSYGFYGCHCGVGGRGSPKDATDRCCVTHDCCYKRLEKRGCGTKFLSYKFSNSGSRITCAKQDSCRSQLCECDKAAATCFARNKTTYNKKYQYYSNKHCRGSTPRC
Method: Assay for Inhibition of HSF-PLA2 In Vitro
The PLA2 used in this test is the extracellular enzyme obtained from human synovial fluid (HSF-PLA2).
The assay for HSF-PLA2 activity was a modification of the described method [Franson R., Dobrow R., Weiss, J., Elsbach P., and Weglick W. B., J. Lipid Res., 19, 18-23 (1978)] which was conducted using [1-^14 C]-oleate-labelled E. coli substrate in excess at a final concentration of 20,000 dpm/ml. This was equivalent to 18.2 mM of cell membrane phospholipid phosphorus and 2×10^9 autoclaved E. coli/ml. The optimal conditions which were developed for the assay of HSF-PLA2 inhibitors are summarized as follows. A total volume of 0.5 ml of reaction mixture typically had the following final composition: substrate (20,000 dpm/ml); enzyme (0.1% HSF, v/v); 2 mM CaCl2; 150 mM Na^+; 50 mM sodium HEPES buffer, pH 7.3; and 1% dimethyl sulfoxide (DMSO, used to solubilize test inhibitors) in the presence or absence of inhibitor. The reaction was initiated by the addition of HSF-PLA2 and duplicate samples of the mixture were incubated in 13×100 mm glass tubes with shaking for 30 minutes at 37° C. The reaction was terminated by the addition of 2.5 ml of chloroform-methanol (1 to 1.5, v/v). The extraction of lipids from the stopped reaction mixture was conducted by the further additions of 0.5 ml of chloroform and 1 ml of water with mixing. After centrifuging, the lower chloroform phase was transferred to smaller glass tubes and the solvent was evaporated to dryness with a nitrogen stream. The extracted lipid residue was redissolved in […] of a solution containing carrier oleic acid (0.2 mg/ml) in chloroform-methanol [9 to 1, v/v]). The whole lipid extract was applied to a preactivated (30 minutes at 110° C.) silica gel-impregnated glass fiber thin layer chromatography sheet (ITLC type SG sheet from Gelman Sciences Inc., Ann Arbor, Mich.) using hexane-acetic acid (100 to 1, v/v) as the developing solvent. This TLC system rapidly (6 minutes) resolved the enzymatically released product, ^14 C-oleic acid, from the unreacted ^14 C-phospholipid substrate. The unsaturated lipids were located on the chromatogram by a brief exposure to iodine vapor. The oleic acid zone (Rf value 0.95) and phospholipid zone (origin) were cut out, chopped into small pieces, shaken with 2 ml of ethanol-water (80 to 20, v/v) and 15 ml of Aquasol and counted for radio-activity. A control incubation of substrate in the absence of HSF-PLA2 was performed in each experiment. The PLA2 activity of the human synovial fluid was corrected for this small control value. […] The specific activity of PLA2 in the pooled human synovial fluid under the optimal assay conditions was 49.2 nmoles [1-^14 C]-oleic aid released hour^-1 mg^-1. The IC50 (μM concentration of test compound that produces 50% inhibition of PLA2 activity) was determined for each test compound.

[3] = test system: carrageenan-induced paw edema; assay: Rat carrageenan paw edema; assay type: in vivo, Lewis rats; conditions: for % Inhib of Carrageenan Paw Edema 2 hr 30 mg/kg ip: 1 hr prior to carrageenan
Method: Rat Carrageenan Paw Edema
Representative compounds of the invention were tested in rat carrageenan-induced paw edema to determine their ability to inhibit this acute inflammatory response. Test compounds were administered intraperitoneally or orally to groups of seven Lewis rats (~200 gm) 1 hr prior to carrageenan administration. The test compounds were dissolved in dimethyl sulfoxide for intraperitoneal administration and dissolved or suspended in Labrafil […] for oral administration. At 0 hour, 0.1 mL of 1% carrageenan dissolved in pyrogen free […] was injected subplanetary into the right hind paw to elicit the inflammatory response. The volume (in mL) of the right hind paw was measured by immersion of the paw to the level of the lateral malleolus in an aqueous plethysmometer immediately prior to the injection of carrageenan and then at 1, 2 and 4 hr after carrageenan injection. The paw edema was calculated by subtracting the zero time reading from the readings taken after injection. The percent change of the edema volume from the vehicle treated control was calculated to determine the activity of the test compound. Statistical analysis of the mean paw edema values of the control versus the treated groups was performed using Student's t-test.

[4] = test system: adjuvant arthritis induced by Freunds complete adjuvant; conditions: dose 10 mg/kp ip
[5] = test system: croton oil-induced mouse ear edema; assay: Croton oil mouse ear edema test; assay type: in vivo, male CD-1 mice; conditions: 1 mg topical, coapplied with croton oil; ear punch weight at 6 hours
Method: Croton Oil Mouse Ear Edema Test
The croton oil-induced mouse ear edema test, a model of irritant-induced contact dermatitis, has been used for evaluation of the PLA2 inhibitors by the topical route of administration. This test was carried out as described in the following references: […]
Twenty five μl of a 1% croton oil solution [dissolved in a mixture of pyridine/water/diethyl ether at a ratio of 5/20/75 (croton oil vehicle)] are applied to the outer side of the right ear of 3-4 week old male CD-1 mice (8 animals per group). The test compounds are dissolved directly in the 1% croton oil solution at various concentrations and coapplied. Control animals receive 25 μl of croton oil vehicle on the right ear. Biopsy punches are removed at 6 hours from the right ear of the animals using a 6 mm skin trephine (Roboz, Washington, D.C.) and the wet weight of the ear punches is determined. The weight of the biopsy punches is a measure of ear inflammation, primarily edema. The data are expressed as percent inhibition relative to control groups.
Statistical analysis of the mean edema values of the control versus the treated groups is performed using Student's t-test. The significance of changes from mean value for vehicle-treated animals is as follows (*p<0.05, **p<0.01, ***p<0.005, ns/not significant).

[6] = 30 minutes prior to TPA, ear punch weight at 6 hours
[7] = MPO activity in ear punches 6 hours after TPA

Structure (SMILES): CCCCCCCCCCCCCC(=O)Nc1cc(NC(=O)CCCCCCCCCCCCC)cc(C(=O)N(CC(=O)O)CC(=O)O)c1 [Example 56, N-(Carboxymethyl)-N-[3,5-bis(1-oxotetradecylamino)benzoyl]glycine]
% Inhib of Carrageenan Paw Edema 2 hr ([3]; 100 mg/kg po): 26%

Structure (SMILES): CCCCCCCCCCCCCCCCCCOc1ccc(C(=O)C(=O)N(CC(=O)O)CC(=O)O)cc1 [Example 65, N-(Carboxymethyl)-N-[2-[4-(octadecyloxy)phenyl]-1,2-dioxoethyl]glycine]
Change in Paw Volume in ml, Treated [4]: -0.07 ± 0.08 mL | % Inhib of Croton Oil Mouse Ear Edema (1 mg) [5]: 44% | inhibition at 1 µM ([2]; 1 μM test compound): 74% | % Inhib of Carrageenan Paw Edema 2 hr 30 mg/kg ip [3]: 71%

Structure (SMILES): CCCCCCCCCCOc1cc(OCCCCCCCCCC)cc(C(=O)C(=O)N(CC(=O)O)CC(=O)O)c1 [Example 73, N-(Carboxymethyl)-N-[[3,5-bis(decyloxy)phenyl]-1,2-dioxoethyl]glycine]
inhibition at 5 µM [2]: 62% | % Inhib of Carrageenan Paw Edema 2 hr 30 mg/kg ip [3]: 56%

Structure (SMILES): O=C(O)CN(CC(=O)O)C(=O)c1cc(OCCCCCCOc2ccc(-c3ccccc3)cc2)ccc1OCc1ccccc1 [Example 105, N-[5-[[6-([1,1'-biphenyl]-4-yloxy)hexyl]oxy]-2-(phenylmethoxy)benzoyl]-N-(carboxymethyl)glycine]
% Inhib of TPA Mouse Ear Edema (1 mg) [1, 6]: 67% | inhibition at 10 µM [2]: 38%

Structure (SMILES): CCCCCCCCCCOc1cc(OCCCCCCCCCC)cc(C(=O)N(CC(=O)O)CC(=O)O)c1 [Example 11, N-(Carboxymethyl)-N-[3,5-bis(decyloxy)benzoyl]glycine]
% Inhib of Croton Oil Mouse Ear Edema (1 mg) [5]: 70% | inhibition at 6 µM ([2]; 6 μM test compound): 50% | % Inhib of Carrageenan Paw Edema 2 hr ([3]; 50 mg/kg): 50%

Structure (SMILES): CCCCCCCCCCCCCCCCCCOc1cc(OCCOCCOCCOCC)cc(C(=O)N(CC(=O)O)CC(=O)O)c1 [Example 48, N-(carboxymethyl)-N-[3-[2-[2-(2-ethoxyethoxy)ethoxy]ethoxy]-(5-octadecyloxy)benzoyl]glycine]
% Inhib of Croton Oil Mouse Ear Edema (1 mg) [5]: 19% | inhibition at 5 µM [2]: 36% | % Inhib of Carrageenan Paw Edema 2 hr 30 mg/kg ip [3]: 76%

Continued, in another order:

inhibition at 10 µM [2]: 71%
Structure (SMILES): CCCCCCCCCCCCCCCCCCOc1ccc(OCCCc2ccccc2)c(C(=O)N(CC(=O)O)CC(=O)O)c1 [Example 95, N-(Carboxymethyl)-N-[5-(octadecyloxy)-2-(3-phenylpropoxy)benzoyl]glycine]
% Inhib of TPA Mouse Ear Edema (1 mg) [1, 6]: 55%

inhibition at 10 µM [2]: 35%
Structure (SMILES): O=C(O)CN(CC(=O)O)C(=O)C(=O)c1ccc(OCCCCCCCCCCCCOc2ccccc2)cc1 [Example 114, N-(Carboxymethyl)-N-[1,2-dioxo-2-[4-[(12-phenoxydodecyl)oxy]phenyl]ethyl]glycine]
% Inhib of TPA Mouse Ear Edema (1 mg) [1, 6]: 37%

inhibition at 10 µM [2]: 70%
Structure (SMILES): CCCCCCCCCCOc1ccc(OCc2ccccc2)c(C(=O)N(CC(=O)O)CC(=O)O)c1 [Example 91, N-(Carboxymethyl)-N-[5-(decyloxy)-2-(phenylmethoxy)benzoyl]glycine]
% Inhib of TPA Mouse Ear Edema (1 mg) [1, 6]: 59% | % Inhib of Myeloperoxidase Mouse Ear Edema (1 mg) [1, 7]: 78%

inhibition at 10 µM [2]: 86%
Structure (SMILES): CCCCCCCCCCCCCCCCCCOc1ccc(OCCCOc2ccc(OCc3ccccc3)cc2)c(C(=O)N(CC(=O)O)CC(=O)O)c1 [Example 99, N-(Carboxymethyl)-N-[5-(octadecyloxy)-2-[3-[4-(phenylmethoxy)phenoxy]propoxy]benzoyl]glycine]
% Inhib of TPA Mouse Ear Edema (1 mg) [1, 6]: 50%

inhibition at 10 µM [2]: 77%
Structure (SMILES): CCCCCCCCCCCCCCCCCCOc1ccc(OCCCOc2ccc(O)cc2)c(C(=O)N(CC(=O)O)CC(=O)O)c1 [Example 100]
% Inhib of TPA Mouse Ear Edema (1 mg) [1, 6]: 65%

inhibition at 5 µM [2]: 42%
Structure (SMILES): CCCCCCCCCCCCCCCCCCOc1ccc(OCc2ccccc2)c(C(=O)N(CC(=O)O)CC(=O)O)c1 [Example 81, N-(Carboxymethyl)-N-[5-(octadecyloxy)-2-(phenylmethoxy)benzoyl]glycine]
% Inhib of TPA Mouse Ear Edema ([1]; 0.3 mg topical, 30 minutes prior to TPA, ear punch weight at 6 hours): 60% | % Inhib of Myeloperoxidase Mouse Ear Edema ([1]; 0.3 mg topical, MPO activity in ear punches 6 hours after TPA): 75% | % Inhib of Croton Oil Mouse Ear Edema (1 mg) [5]: 74%

inhibition at 10 µM [2]: 61%
Structure (SMILES): O=C(O)CN(CC(=O)O)C(=O)c1cc(OCCCCCCCCCCCCOc2ccccc2)ccc1OCc1ccccc1 [Example 110, N-(Carboxymethyl)-N-[5-[(12-phenoxydodecyl)oxy]-2-(phenylmethoxy)benzoyl]glycine]
% Inhib of TPA Mouse Ear Edema (1 mg) [1, 6]: 57%

inhibition at 10 µM [2]: 70%
Structure (SMILES): CCCCCCCCCCCCCCOc1ccc(OCc2ccccc2)c(C(=O)N(CC(=O)O)CC(=O)O)c1 [Example 86, N-(Carboxymethyl)-N-[5-(tetradecyloxy)-2-(phenylmethoxy)benzoyl]glycine]
% Inhib of TPA Mouse Ear Edema (1 mg) [1, 6]: 47% | % Inhib of Myeloperoxidase Mouse Ear Edema (1 mg) [1, 7]: 63%
